The values below are quoted from earlier work in paper PMC3838783 (Applied Biochemistry and Biotechnology, 2013).

Structures are written as SMILES.

The series relates to rats.

In the case of `CC(=O)NO` [acetohydroxyamic acid], the Teratogenicity result is given as “teratogenic”.
